Source: patent publication US12083165B2, “Thymosin alpha 1 for use in treatment of cystic fibrosis” (SciClone Pharmaceuticals International (SG) PTE. LTD., priority 2015, dated 2024)

Legend:
TMEM16A = assay: DNA microarray analysis of mice with pulmonary aspergillosis; format: in vivo; settings: unpublished results
[1] = tested on: A. fumigatus-infected C57BL/6 and Cftr−/− mice; assay: Lung inflammatory pathology and cell recruitment in Aspergillus-infected mice; format: in vivo; settings: 200 μg/kg/i.p. daily for 6 days, 7 days post-infection
Protocol: Mice. Wild-type (WT) inbred C57BL6 mice, 8 to 12 weeks old, were purchased from Charles River Breeding Laboratories (Calco, Italy). Genetically engineered homozygote Cftr^−/− mice (33) were bred at the Cystic Fibrosis core animal facility at San Raffaele Hospital, Milan, Italy. Experiments were performed following protocols approved by the institutional animal committee and in accordance with European Economic Community Council Directive as well as institutional animal care and use guidelines.
Infection and treatments. Mice were anesthetized by i.p. injection of 2.5% avertin (Sigma Chemical Co, St. Louis, MO) before intranasal instillation of 2×10^7 A. fumigatus (Af293) resting conidia/20 μl saline. For histology, paraffin-embedded tissue were stained with Periodic acid-Schiff (PAS), and BAL fluid collection was done as described (21, 22). […]
Aspergillus-infected mice were treated with 200 μg/kg/i.p. daily of Tα1 for 6 consecutive days beginning the day of the infection. Mice were monitored for lung inflammatory pathology and cell recruitment at 7 days post-infection. […] Differential cell count of mononuclear (MNC), polymorphonuclear (PMN) cells and eosinophils (EOS) was determined upon May Grunwald Giemsa staining. […]

ΔF508 CFTR = ΔF508 CFTR (Homo sapiens, UniProt P13569, DEL508-508); assay: Chloride permeability by SPQ fluorescence assay upon forskolin stimulation, HBE cells from CF patients; format: cell-based
Chain of ΔF508 CFTR (P13569 with tags, fused parts or gaps DEL508-508): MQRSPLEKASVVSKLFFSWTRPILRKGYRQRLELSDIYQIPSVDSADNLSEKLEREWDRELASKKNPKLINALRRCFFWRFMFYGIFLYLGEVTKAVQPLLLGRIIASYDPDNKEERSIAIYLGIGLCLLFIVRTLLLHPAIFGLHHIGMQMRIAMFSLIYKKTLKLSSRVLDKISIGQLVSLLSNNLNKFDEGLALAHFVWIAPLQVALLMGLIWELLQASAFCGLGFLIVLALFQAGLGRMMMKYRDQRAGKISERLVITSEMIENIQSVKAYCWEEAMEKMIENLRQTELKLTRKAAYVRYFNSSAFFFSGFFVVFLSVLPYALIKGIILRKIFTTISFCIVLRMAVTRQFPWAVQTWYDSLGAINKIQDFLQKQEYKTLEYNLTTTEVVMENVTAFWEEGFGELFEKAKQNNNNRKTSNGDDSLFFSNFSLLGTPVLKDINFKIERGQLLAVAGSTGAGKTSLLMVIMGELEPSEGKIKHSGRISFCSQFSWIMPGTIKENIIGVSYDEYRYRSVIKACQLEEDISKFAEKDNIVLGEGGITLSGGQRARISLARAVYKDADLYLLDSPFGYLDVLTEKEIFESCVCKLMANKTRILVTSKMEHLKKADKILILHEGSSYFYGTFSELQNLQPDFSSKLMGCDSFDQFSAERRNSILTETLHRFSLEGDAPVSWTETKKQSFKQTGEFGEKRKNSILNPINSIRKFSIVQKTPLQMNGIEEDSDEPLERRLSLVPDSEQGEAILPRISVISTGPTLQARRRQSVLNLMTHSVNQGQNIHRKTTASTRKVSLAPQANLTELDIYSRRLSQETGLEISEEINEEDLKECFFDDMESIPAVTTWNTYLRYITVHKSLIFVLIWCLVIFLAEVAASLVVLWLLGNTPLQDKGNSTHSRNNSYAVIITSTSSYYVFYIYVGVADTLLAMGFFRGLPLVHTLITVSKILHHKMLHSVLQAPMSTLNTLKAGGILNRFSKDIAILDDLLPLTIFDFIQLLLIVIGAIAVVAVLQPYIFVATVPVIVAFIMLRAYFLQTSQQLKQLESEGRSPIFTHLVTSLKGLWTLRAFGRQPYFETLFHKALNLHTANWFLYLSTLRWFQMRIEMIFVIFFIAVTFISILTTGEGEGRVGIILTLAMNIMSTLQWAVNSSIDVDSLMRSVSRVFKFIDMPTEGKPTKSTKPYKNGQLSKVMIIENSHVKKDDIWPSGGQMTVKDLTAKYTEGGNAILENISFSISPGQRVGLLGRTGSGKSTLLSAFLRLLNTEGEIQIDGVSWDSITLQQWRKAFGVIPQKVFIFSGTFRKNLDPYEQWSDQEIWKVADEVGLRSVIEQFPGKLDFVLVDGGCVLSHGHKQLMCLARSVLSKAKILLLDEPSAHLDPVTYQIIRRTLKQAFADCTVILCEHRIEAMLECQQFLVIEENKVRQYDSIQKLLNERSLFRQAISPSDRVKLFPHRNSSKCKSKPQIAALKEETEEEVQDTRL
Protocol: Cells. Cell Lines and Cell Culture—Human bronchial epithelial (HBE) cells, homozygous for the […] mutation and its isogenic wild-type were obtained from lung transplants (CF patients) or lung resections (non-CF patients) (kindly provided by L J Galietta within the Italian Cystic Fibrosis Foundation). Cells were maintained at 37° C. in a humidified incubator in an atmosphere containing 5% CO2, and the experiments were done 5 days after plating (21, 22). Stable lentiviral-based transduction of the parental CFBE41o− cells (ΔF508/ΔF508), originally immortalized and characterized by Dr. D. Gruenert and co-workers (32) with either WT-CFTR or ΔF508-CFTR, was performed by Tranzyme, Inc. (Birmingham, AL). […]
The activity of Tα1, either alone or in combination with ivacaftor, has been comparatively assessed with that of lumacaftor on CFBE41o− cells expressing ΔF508 CFTR and on HBE cells from CF patients. To this purpose, cells were treated with Tα1 (100 ng/ml), VX-770 (1 μM) or VX-809 (3 μM) alone or in combination for 24 hours and assessed for CFTR protein expression and function. […] In terms of ion channel activity, Tα1, either alone or in combination with ivacaftor, increased the chloride permeability of ΔF508 CFTR cells between 60 to 70% relative to control (considering WT control as 100% reference value)(B, assessed by a fluorescence assay upon stimulation with fosforkolin, Fsk). […]

**Q.** With “Ac-Ser-Asp-Ala-Ala-Val-Asp-Thr-Ser-Ser-Glu-Ile-Thr-Thr-Lys-Asp-Leu-Lys-Glu-Lys-Lys-Glu-Val-Val-Glu-Glu-Ala-Glu-Asn-O (Ac-SDAAVDTSSEITTKDLKEKKEVVEEAEN-OH; not fully specified; printed as Ac-Ser-Asp-Ala-Ala-Val-Asp-Thr-Ser-Ser-Glu-Ile-Thr-Thr-Lys-Asp-Leu-Lys-Glu-Lys-Lys-Glu-Val-Val-Glu-Glu-Ala-Glu-Asn-O; listed as Homo sapiens) [Tα1, naturally occurring polypeptide of 28 amino acid; supplied as purified sterile, lyophilized, acetylated polypeptide]” as the substance, how does the “expression of TMEM16A in mice with pulmonary aspergillosis” value (TMEM16A) read?
**A.** The value was “greatly increased”.

**Q.** What about the “local inflammatory cell recruitment and lung pathology (lung and BAL)” value ([1]; C57/BL6 mice) of the same substance?
**A.** The value was “significantly decreased”.

**Q.** What about the “local inflammatory cell recruitment and lung pathology (lung and BAL)” value ([1]; Cftr−/− mice) of the same substance?
**A.** The value was “significantly decreased”.

**Q.** What about the “chloride permeability of ΔF508 CFTR cells relative to control (WT control as 100%)” value (ΔF508 CFTR; 100 ng/ml Tα1 for 24 hours, forskolin stimulation) of the same substance?
**A.** Its value is “approximately 70%”.

**Q.** And the “ion channel activity compared to lumacaftor” value (ΔF508 CFTR; 24 hours)?
**A.** The value was “similar”.
